# Results reported in patent publication US12383547B2, “Methods of treatment for a kidney disease” (Vanderbilt University, priority 2020, dated 2025).
# Where two headings read alike, the source gives them in different places.
# Assays:
# asthma patients (FEV1) = details: cited from earlier work
# AKI in adult patients = test: Epidemiologic EHR analysis (Vanderbilt 'Synthetic Derivative') of montelukast use and AKI; type: in vivo, human; details: N=3,721 adult patients, 147 users; logistic regression adjusted for race, sex, age, BMI, asthma; 95% CI: 13 to 56%; AKI defined as printed '≥21.5-fold serum creatine increase from baseline'
# Description: Epidemiologic EHR data from Vanderbilt's ‘Synthetic Derivative’ was examined to determine whether montelukast use is associated with decreased AKI. Individuals eligible for inclusion in the dataset included those with two or more serum creatinine labs occurring after montelukast gained marketing approval (N=3,721), and children were excluded. Montelukast users were defined as those with ≥23 mentions of montelukast where 22 mentions are 230 days apart (N=147). AKI was defined as a ≥21.5-fold serum creatine increase from baseline (N=1,220). ‘Case users’ were defined as those who qualified as both an AKI case and a montelukast user (N=58). Crude and adjusted odds ratios (OR) and 95% confidence intervals (CI) were calculated using logistic regression.
# [1] = cited from earlier work
# [2] = cited from earlier work; remark: listed apart in the source
# animal models = details: cited from earlier work
# [3] = single oral dose of 10, 100, or 250 mg
smiles,measurement,setting,value
"CC(C)(O)c1ccccc1CC[C@@H](SCC1(CC(=O)O)CC1)c1cccc(/C=C/c2ccc3ccc(Cl)cc3n2)c1 [Montelukast, [R-(E)]-1-[[[1-[3-[2-(7-chloro-2-quinolinyl)ethenyl]phenyl]-3-[2-(1-hydroxy-1-methylethyl)phenyl]propyl]thio]methyl]cyclopropaneacetic acid]",FEV1 increase at higher doses versus 10 mg once daily,asthma patients (FEV1); 200 mg three times per day,failed to increase FEV1 more than 10 mg once daily
same,period for which FEV1 effects were maintained,asthma patients (FEV1); [3],24 h
same,time to significant improvement of FEV1 after administration,asthma patients (FEV1); [3],≤ 1 h
same,"reduced odds (risk) of AKI, montelukast users compared to non-users",AKI in adult patients,38%
same,plasma concentration in dose ranging study,[1]; dose ranging study of 20-800 mg,dose-dependent increase in plasma concentration
same,half-life,"[1]; human, in vivo",5 h
same,potential for drug-drug interactions,"[1]; human, in vivo",low potential for drug-drug interactions
same,steady state plasma levels achieved,"[1]; human, in vivo",2 Day of dosing
same,pharmacokinetics in elderly volunteers versus younger adults,"[1]; oral 10 mg, elderly (aged 265 years as printed) vs younger adults (aged 20 to 45 years)",similar
same,elimination via the renal route,[1]; package insert,not significantly eliminated via the renal route
same,adverse events,[2]; 200 mg three times per day for 10 days,no significant adverse events
same,safety or effectiveness in subjects 65 years and over versus younger subjects,"[2]; clinical studies of montelukast, 3.5% were 65 and over, 0.4% were 75 and over",No overall differences in safety or effectiveness
same,neuropsychiatric disturbances,"[2]; phase IV post marketing studies, chronic montelukast users, additional research did not support this finding",concern for neuropsychiatric disturbances was noted
same,adverse events,[2]; single doses of 800 mg,no significant adverse events
same,markers of inflammation,animal models,attenuate markers of inflammation
same,markers of oxidative stress,animal models; leukotriene antagonists such as montelukast,attenuate markers of oxidative stress
